The results in this text go back to PubChem BioAssay (NCI).

Some test systems named below: UACC-62 melanoma; HOP-62 NSCLC; EKVX NSCLC; NCI-H460 lung.
Holding throughout (assay): NCI tumour cell line growth inhibition, 48 h

Molecules are shown by their SMILES.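 Briefly, cells in 96-well plates were exposed to five compound concentrations for 48 h, and endpoints were estimated by linear interpolation. TGI marks complete inhibition of growth.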

On to `COC1C(O)C(C)OC(OC2CCC3(C)C(CCC4C3C(O)CC3(C)C(C5=CC(=O)OC5)CCC43O)C2)C1O` (configuration not stated), for which the TGI in the test on UACC-62 melanoma was 1.25 µM; in the test with HOP-62 NSCLC, 0.473 µM; in the test with EKVX NSCLC, 0.536 µM; with NCI-H460 lung it was 0.777 µM.

Regarding `Clc1c2ccccc2nc2c1[nH]c1ccccc12`, the TGI with UACC-62 melanoma, in the test with HOP-62 NSCLC, in the test on EKVX NSCLC and with NCI-H460 lung was above 100 µM each time.

In the case of `CC1(C)C2CCC(O)(C2)C1N` (configuration not stated), the TGI in the test with UACC-62 melanoma, in the test with HOP-62 NSCLC, with EKVX NSCLC and in the test on NCI-H460 lung was above 100 µM in each case.

Take `O=c1oc2ccc([N+](=O)[O-])cc2cc1Br`: the TGI in the test with UACC-62 melanoma, with HOP-62 NSCLC, with EKVX NSCLC and in the test with NCI-H460 lung was above 100 µM throughout.

On to `CCO/C(Cc1ccc(Cl)cc1)=N/NC(N)=S`, for which the TGI in the test with UACC-62 melanoma, in the test on HOP-62 NSCLC, in the test on EKVX NSCLC and in the test with NCI-H460 lung was above 100 µM in each case.

With `O=C(N/N=C/C=C/c1ccc([N+](=O)[O-])o1)c1ccc(C(=O)N/N=C/C=C/c2ccc([N+](=O)[O-])o2)cc1`, the TGI was above 100 µM in the test with UACC-62 melanoma, above 100 µM in the test with HOP-62 NSCLC, above 100 µM in the test with EKVX NSCLC and above 88.5 µM in the test on NCI-H460 lung.

As to `C#CC1NC(=O)C1N(CC)CC` (configuration not stated), the TGI in the test on UACC-62 melanoma, in the test with HOP-62 NSCLC, in the test on EKVX NSCLC and in the test with NCI-H460 lung was above 100 µM in each case.

`NC(Cc1ccc(B(O)O)cc1)C(=O)NC(CO)CO` (configuration not stated): the TGI with UACC-62 melanoma, in the test with HOP-62 NSCLC, in the test on EKVX NSCLC and with NCI-H460 lung was above 100 µM in each case.

For the compound `CC1(C)OC(=O)C(Cc2ccccc2)(Cc2ccccc2)C(=O)O1`, the TGI in the test on UACC-62 melanoma, in the test on HOP-62 NSCLC, with EKVX NSCLC and with NCI-H460 lung was above 100 µM in each case.

Regarding `Cc1ccc(N2C(N)=C(C#N)C(C#N)(C#N)C2c2ccccc2)cc1` (configuration not stated), the TGI in the test on UACC-62 melanoma amounted to 26.7 µM; in the test on HOP-62 NSCLC it was 36.9 µM; in the test on EKVX NSCLC it was 46 µM.

Regarding `N#Cc1c(N2CCN(c3ccc([N+](=O)[O-])cc3)CC2)[n+](=O)c2ccccc2n1[O-]`, the TGI in the test on UACC-62 melanoma, with HOP-62 NSCLC, in the test with EKVX NSCLC and in the test on NCI-H460 lung was above 100 µM each time.

As for `COc1cc2ccc1OCc1cccc(n1)COc1ccc(cc1OC)C=NCCNCCN=C2`, the TGI with HOP-62 NSCLC, in the test on EKVX NSCLC and with NCI-H460 lung was above 100 µM throughout.

For `O=C1/C(=C/c2ccc(Cl)cc2)CSC/C1=C\c1ccc(Cl)cc1`, the TGI in the test with UACC-62 melanoma came to 2.83 µM; in the test on HOP-62 NSCLC, 16.2 µM; in the test with EKVX NSCLC it was 41.7 µM; in the test with NCI-H460 lung, 30.5 µM.

On to `N/C(=N\S(=O)(=O)c1cc(Cl)c(Oc2ccc([N+](=O)[O-])cc2Cl)c(Cl)c1)Nc1ccc(Cl)cc1`, for which the TGI is 25.6 µM in the test with UACC-62 melanoma, 36.6 µM in the test with EKVX NSCLC and 40.1 µM with NCI-H460 lung.

For the compound `COC(=O)C1=C(CCC[C@H](C)O[Si](C)(C)C(C)(C)C)NC(=O)N2[C@@H](CCO)CC[C@H]12`, the values for the TGI in the test on HOP-62 NSCLC, in the test on EKVX NSCLC and in the test with NCI-H460 lung were 27.7 µM, 26.1 µM and 47.4 µM, respectively.

With `[N-]=[N+]=CC(=O)CCC(=O)N(c1ccccc1)c1ccccc1`, the TGI with HOP-62 NSCLC, with EKVX NSCLC and with NCI-H460 lung was above 10 µM throughout.

For `N#Cc1c(O)c2ccccc2[nH]c1=O`, the TGI with UACC-62 melanoma, in the test on HOP-62 NSCLC and in the test with EKVX NSCLC was above 100 µM throughout.

Take `CC1=CCC2CC1NC(=O)CCOCCC(=O)NC2(C)C` (configuration not stated): the TGI in the test with UACC-62 melanoma and with NCI-H460 lung was above 100 µM each time.

Take `Cc1c(F)c(NC(=O)CN(C)C)c2c(=O)cc(-c3ccc(NC(=O)CN(C)C)c(F)c3)oc2c1F`: the TGI was 34.8 µM in the test with UACC-62 melanoma, 32.5 µM in the test on HOP-62 NSCLC and 29 µM with NCI-H460 lung.

Consider `NC(=O)C(=CNC(=S)Nc1cccc(C(F)(F)F)c1)C(N)=O`, for which the TGI in the test with UACC-62 melanoma, in the test on HOP-62 NSCLC and in the test with NCI-H460 lung was above 100 µM each time.

Regarding `CCCNC(=O)N(C)C(=O)N1N=C(c2ccccc2)C1c1ccccc1` (configuration not stated), the TGI with UACC-62 melanoma, with HOP-62 NSCLC and in the test on EKVX NSCLC was above 100 µM each time.

As to `CC(=O)OCC1OC(n2nc(Cc3ccccc3)c(=S)[nH]c2=S)C(OC(C)=O)C(OC(C)=O)C1OC(C)=O` (configuration not stated), the TGI in the test on UACC-62 melanoma is 35.5 µM; in the test with HOP-62 NSCLC it was 51.4 µM; in the test with NCI-H460 lung it was above 100 µM.

In the case of `COc1ccc(C(=O)/C=C/c2ccc(OCC(=N)N)cc2)cc1`, the figures for the TGI with UACC-62 melanoma, with HOP-62 NSCLC and in the test on EKVX NSCLC were 29 µM, 29.9 µM and 30.8 µM, respectively.

As for `COc1cc2c[n+](C)c3c(c2cc1OC)Cc1cc2c(cc1-3)OCO2`, the TGI in the test with UACC-62 melanoma, in the test with HOP-62 NSCLC and with EKVX NSCLC was above 100 µM each time.
